Results taken from patent publication US20240150293A1, “SPIROCYCLOHEXANE DERIVATIVES, PHARMACEUTICAL COMPOSITIONS CONTAINING THEM AND THEIR USES AS ANTI-APOPTOTIC INHIBITORS” (LES LABORATOIRES SERVIER, priority 2021, published 2024).

target: Mcl-1 protein (UniProtKB Q07820) (Homo sapiens (Human), UniProt Q07820); assay: Inhibition of Mcl-1 by the fluorescence polarisation assay (Example A, Method A); type: binding; details: fluorescence polarization assay
How it was run: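 Protein (5 nM) and fluorescein-tagged peptide tracer (1 nM) incubated with 11-point compound series for 2 h at room temperature in HEPES/NaCl/Tween 20 buffer, pH 7.4, 5% DMSO. Displacement read as decrease in polarisation; IC50 fitted by 4-parameter logistic, converted to Ki (cKi or eKi).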

Sequence of Mcl-1 protein (Q07820 whole entry): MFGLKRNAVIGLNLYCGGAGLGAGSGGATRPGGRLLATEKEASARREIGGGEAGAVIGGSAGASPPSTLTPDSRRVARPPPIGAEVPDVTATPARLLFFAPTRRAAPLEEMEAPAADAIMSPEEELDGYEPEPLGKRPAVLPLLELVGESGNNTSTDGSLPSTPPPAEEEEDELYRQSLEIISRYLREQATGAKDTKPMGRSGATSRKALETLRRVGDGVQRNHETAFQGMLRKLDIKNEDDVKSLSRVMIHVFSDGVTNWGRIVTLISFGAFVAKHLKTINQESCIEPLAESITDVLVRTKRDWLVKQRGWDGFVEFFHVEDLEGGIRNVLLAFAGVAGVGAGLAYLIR

| SMILES | Ki |
| --- | --- |
| O=C(O)[C@]1(Nc2cccc(Cl)c2)CC[C@@]2(CC1)c1ccccc1CC2CCCN1CCOCC1 (stereo partly drawn) [Example 196, (1r,4r)-4-(3-chloroanilino)-2′-[3-(morpholin-4-yl)propyl]-2′,3′-dihydrospiro[cyclohexane-1,1′-indene]-4-carboxylic acid] | 9.47 µM |
| O=C(O)[C@]1(Nc2cccc(Cl)c2)CC[C@@]2(CC1)c1ccccc1CC2Cc1ccccc1 (stereo partly drawn) [Example 169, (1r,4r)-2′-benzyl-4-(3-chloroanilino)-2′,3′-dihydrospiro[cyclohexane-1,1′-indene]-4-carboxylic acid] | 4.77 µM |
| O=C(O)[C@]1(Nc2cccc(Br)c2)CC[C@]2(CC1)c1ccccc1CC2CCc1ccccn1 (mixture of isomers) [Example 176, (1s,4s)-4-(3-bromoanilino)-2′-[2-(pyridin-2-yl)ethyl]-2′,3′-dihydrospiro[cyclohexane-1,1′-indene]-4-carboxylic acid] | 11.8 µM |
| O=C(O)[C@]1(Nc2cccc(Cl)c2)CC[C@@]2(CC1)c1ccccc1CC2[C@H]1C[C@@H]1COc1cccnc1 (single isomer, unassigned) [Example 114, (1r,4r)-4-(3-chloroanilino)-2′-[(1R*,2S*)-2-{[(pyridin-3-yl)oxy]methyl}cyclopropyl]-2′,3′-dihydrospiro[cyclohexane-1,1′-indene]-4-carboxylic acid] | 27.3 µM |
| O=C(O)[C@]1(Nc2cccc(Cl)c2)CC[C@@]2(CC1)c1ccccc1CC2[C@H]1C[C@@H]1COc1cccnc1 (single isomer, unassigned) [Example 113, (1r,4r)-4-(3-chloroanilino)-2′-[(1R*,2S*)-2-{[(pyridin-3-yl)oxy]methyl}cyclopropyl]-2′,3′-dihydrospiro[cyclohexane-1,1′-indene]-4-carboxylic acid] | 22.3 µM |
| CN(c1cccc(Cl)c1)[C@]1(C(=O)O)CC[C@]2(C=Cc3ccccc32)CC1 [Example 73, (1r,4r)-4-[(3-chlorophenyl)(methyl)amino]spiro[cyclohexane-1,1′-indene]-4-carboxylic acid] | 60.5 µM |
| O=C(O)[C@]1(Nc2cccc(Br)c2)CC[C@@]2(CC1)c1ccccc1C[C@@H]2c1ccccc1 [Example 211, (1r,2′R,4R)-4-(3-bromoanilino)-2′-phenyl-2′,3′-dihydrospiro[cyclohexane-1,1′-indene]-4-carboxylic acid] | 11 µM |
| Cc1cnccc1OCCCN1Cc2ccccc2[C@]12CC[C@@](Nc1cccc(Cl)c1)(C(=O)O)CC2 [Example 37, (1s,4s)-4-(3-chloroanilino)-2′-{3-[(3-methylpyridin-4-yl)oxy]propyl}-2′,3′-dihydrospiro[cyclohexane-1,1′-isoindole]-4-carboxylic acid] | 0.295 µM |
| COc1ccc(C2=Cc3ccccc3[C@]23CC[C@@](Nc2cccc(Cl)c2)(C(=O)O)CC3)cc1Cl [Example 227, (1s,4s)-4-(3-chloroanilino)-2′-(3-chloro-4-methoxyphenyl)spiro[cyclohexane-1,1′-indene]-4-carboxylic acid] | 1.19 µM |
| O=C(O)[C@]1(Nc2cccc(Br)c2)CC[C@@]2(CC1)C(=O)Nc1ccccc12 [Example 1, (1r,4r)-4-(3-bromoanilino)-2′-oxo-1′,2′-dihydrospiro[cyclohexane-1,3′-indole]-4-carboxylic acid] | 23.3 µM |
| O=C(O)[C@]1(Nc2cccc(Cl)c2)CC[C@@]2(CC1)c1ccccc1CC2[C@H]1C[C@@H]1COc1cccnc1 (single isomer, unassigned) [Example 116, (1r,4r)-4-(3-chloroanilino)-2′-[(1R*,2S*)-2-{[(pyridin-3-yl)oxy]methyl}cyclopropyl]-2′,3′-dihydrospiro[cyclohexane-1,1′-indene]-4-carboxylic acid] | 0.882 µM |
| O=C(O)C1(Nc2cccc(Br)c2)CCC2(CC1)C(c1ccc(Cl)c(Cl)c1)=Cc1ccccc12 (single isomer, unassigned) [Example 233, 4-(3-bromoanilino)-2′-(3,4-dichlorophenyl)spiro[cyclohexane-1,1′-indene]-4-carboxylic acid] | 44 µM |
| C/C=C/C1=Cc2ccccc2[C@]12CC[C@@](Nc1cccc(Cl)c1)(C(=O)O)CC2 [Example 159, (1r,4r)-4-(3-chloroanilino)-2′-[(1E)-prop-1-en-1-yl]spiro[cyclohexane-1,1′-indene]-4-carboxylic acid] | 0.233 µM |

Continued, values first:

| Ki | SMILES |
| --- | --- |
| 2.18 µM | COc1cc(Cl)cc(C2=Cc3ccccc3[C@]23CC[C@@](Nc2cccc(Cl)c2)(C(=O)O)CC3)c1 [Example 331, (1s,4s)-4-(3-chloroanilino)-2′-(3-chloro-5-methoxyphenyl)spiro[cyclohexane-1,1′-indene]-4-carboxylic acid] |
| 0.154 µM | O=C(O)[C@]1(Nc2cccc(Cl)c2)CC[C@]2(CC1)C(c1cccc(OCC3CC3)c1)=Cc1ccccc12 [Example 339, (1s,4s)-4-(3-chloroanilino)-2′-[3-(cyclopropylmethoxy)phenyl]spiro[cyclohexane-1,1′-indene]-4-carboxylic acid] |
| 27.1 µM | O=C(O)C1(Nc2cccc(Br)c2)CCC2(CC1)C(c1cc(Cl)cc(Cl)c1)=Cc1ccccc12 (single isomer, unassigned) [Example 236, 4-(3-bromoanilino)-2′-(3,5-dichlorophenyl)spiro[cyclohexane-1,1′-indene]-4-carboxylic acid] |
| 0.185 µM | CC[C@H](COc1cccnc1)C[C@H]1Cc2ccccc2[C@]12CC[C@@](Nc1cccc(Cl)c1)(C(=O)O)CC2 [Example 540, (1r,2′S,4S)-4-(3-chloroanilino)-2′-[(2S)-2-{[(pyridin-3-yl)oxy]methyl}butyl]-2′,3′-dihydrospiro[cyclohexane-1,1′-indene]-4-carboxylic acid] |
| 8.45 µM | O=C(O)[C@]1(Nc2cccc(Cl)c2)CC[C@@]2(CC1)c1ccccc1C[C@@H]2c1cccc(Oc2ccccc2)c1 [Example 324, (1r,2′R,4R)-4-(3-chloroanilino)-2′-(3-phenoxyphenyl)-2′,3′-dihydrospiro[cyclohexane-1,1′-indene]-4-carboxylic acid] |
| 1.39 µM | COc1ccc2c(c1)[C@]1(CC[C@@](Nc3cccc(Cl)c3)(C(=O)O)CC1)C(c1cccc(C)c1)=C2 [Example 366, (1r,4r)-4-(3-chloroanilino)-6′-methoxy-2′-(3-methylphenyl)spiro[cyclohexane-1,1′-indene]-4-carboxylic acid] |
| 0.127 µM | O=C(O)[C@]1(Nc2cccc(Cl)c2)CC[C@@]2(CC1)c1ccccc1CC2CCCOc1ccnc2ccoc12 (stereo partly drawn) [Example 447, (1r,4r)-4-(3-chloroanilino)-2′-{3-[(furo[3,2-b]pyridin-7-yl)oxy]propyl}-2′,3′-dihydrospiro[cyclohexane-1,1′-indene]-4-carboxylic acid] |
| 18.8 µM | O=C(NCCc1ccncc1)C1=Cc2ccccc2[C@]12CC[C@@](Nc1cccc(Cl)c1)(C(=O)O)CC2 [Example 402, (1s,4s)-4-(3-chloroanilino)-2′-{[2-(pyridin-4-yl)ethyl]carbamoyl}spiro[cyclohexane-1,1′-indene]-4-carboxylic acid] |
| 4.96 µM | O=C(O)[C@]1(Nc2cccc(Cl)c2)CC[C@@]2(CC1)c1ccccc1CC2c1coc2ccccc12 (single isomer, unassigned) [Example 285, (1r,4r)-2′-(1-benzofuran-3-yl)-4-(3-chloroanilino)-2′,3′-dihydrospiro[cyclohexane-1,1′-indene]-4-carboxylic acid] |
| 0.383 µM | COc1ccc(C2Cc3ccccc3C23CCC(Nc2cccc(Cl)c2)(C(=O)O)CC3)cc1Cl (stereo not drawn) [Example 279, (1r,4r)-4-(3-chloroanilino)-2′-(3-chloro-4-methoxyphenyl)-2′,3′-dihydrospiro[cyclohexane-1,1′-indene]-4-carboxylic acid] |
| 0.0297 µM | CC1CCc2nccc(OCCCC3Cc4ccccc4[C@]34CC[C@@](Nc3cccc(Cl)c3)(C(=O)O)CC4)c21 (stereo partly drawn) [Example 478, (1r,4r)-4-(3-chloroanilino)-2′-{3-[(5-methyl-6,7-dihydro-5H-cyclopenta[b]pyridin-4-yl)oxy]propyl}-2′,3′-dihydrospiro[cyclohexane-1,1′-indene]-4-carboxylic acid] |
| 0.477 µM | O=C(O)[C@]1(Nc2cccc(Cl)c2)CC[C@@]2(CC1)c1ccccc1CC2CCCOc1ccc(F)cc1 (stereo partly drawn) [Example 425, (1r,4r)-4-(3-chloroanilino)-2′-[3-(4-fluorophenoxy)propyl]-2′,3′-dihydrospiro[cyclohexane-1,1′-indene]-4-carboxylic acid] |
| 3.1 µM | COc1ccc2c(c1)[C@]1(CC[C@@](Nc3cccc(Cl)c3)(C(=O)O)CC1)C(c1cccc(Oc3ccccc3)c1)C2 (single isomer, unassigned) [Example 379, (1r,4r)-4-(3-chloroanilino)-6′-methoxy-2′-(3-phenoxyphenyl)-2′,3′-dihydrospiro[cyclohexane-1,1′-indene]-4-carboxylic acid] |
| 0.273 µM | COc1ccc(C2Cc3ccccc3[C@]23CC[C@@](Nc2cccc(Cl)c2)(C(=O)O)CC3)cc1C (single isomer, unassigned) [Example 243, (1r,4r)-4-(3-chloroanilino)-2′-(4-methoxy-3-methylphenyl)-2′,3′-dihydrospiro[cyclohexane-1,1′-indene]-4-carboxylic acid] |
| 0.41 µM | COc1cccc(C2=Cc3ccccc3[C@]23CC[C@@](Nc2cccc(Cl)c2)(C(=O)O)CC3)c1C [Example 299, (1s,4s)-4-(3-chloroanilino)-2′-(3-methoxy-2-methylphenyl)spiro[cyclohexane-1,1′-indene]-4-carboxylic acid] |
| 11.1 µM | COc1ccc(C2Cc3ccccc3[C@]23CC[C@@](Nc2cccc(Cl)c2)(C(=O)O)CC3)c(Cl)c1 (single isomer, unassigned) [Example 269, (1r,4r)-4-(3-chloroanilino)-2′-(2-chloro-4-methoxyphenyl)-2′,3′-dihydrospiro[cyclohexane-1,1′-indene]-4-carboxylic acid] |
| 0.104 µM | Cc1cncnc1OCCCC1=Cc2ccccc2[C@]12CC[C@@](Nc1cccc(Br)c1)(C(=O)O)CC2 [Example 456, (1r,4r)-4-(3-bromoanilino)-2′-{3-[(5-methylpyrimidin-4-yl)oxy]propyl}spiro[cyclohexane-1,1′-indene]-4-carboxylic acid] |
